Patent publication US20120040991A1, “3-AZABICYCLO [4.1.0] HEPTANES USED AS OREXIN ANTAGONISTS” (Glaxo Group Limited, priority 2009, published 2012)

Target: T1, human cloned orexin-2 receptor (Homo sapiens, UniProt O43614)
T1 construct: expressed in transfected cells
T1 sequence (O43614 1-444): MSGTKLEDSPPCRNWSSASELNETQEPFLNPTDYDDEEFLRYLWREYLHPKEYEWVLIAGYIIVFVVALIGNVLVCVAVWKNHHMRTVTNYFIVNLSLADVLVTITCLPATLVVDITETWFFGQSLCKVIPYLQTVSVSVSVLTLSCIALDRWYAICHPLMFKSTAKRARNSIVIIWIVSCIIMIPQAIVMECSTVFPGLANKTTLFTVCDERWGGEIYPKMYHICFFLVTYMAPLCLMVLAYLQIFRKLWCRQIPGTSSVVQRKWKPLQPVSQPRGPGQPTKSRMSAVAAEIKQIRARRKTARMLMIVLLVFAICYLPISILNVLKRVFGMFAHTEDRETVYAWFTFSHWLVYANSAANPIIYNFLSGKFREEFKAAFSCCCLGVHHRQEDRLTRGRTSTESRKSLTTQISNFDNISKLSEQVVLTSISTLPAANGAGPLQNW
Experiment: Determination of antagonist affinity at human Orexin-2 receptor using FLIPR ([Ca2+]i, CHO cells, hOrexin A at EC80)
Format: cell-based
Conditions: functional pKi from IC50 by modified Cheng-Prusoff, read-out: fpKi
Excerpt: Determination of Antagonist Affinity at Human Orexin-1 and 2 Receptors Using FLIPR
Adherent Chinese Hamster Ovary (CHO) cells, stably expressing the recombinant human Orexin-1 or human Orexin-2 receptors or Rat Basophilic Leukaemia Cells (RBL) stably expressing recombinant rat Orexin-1 or rat Orexin-2 receptors were maintained in culture in Alpha Minimum Essential Medium (Gibco/Invitrogen, cat. no.; 22571-020), supplemented with 10% decomplemented foetal bovine serum (Life Technologies, cat. no. 10106-078) and 400 μg/mL Geneticin G418 (Calbiochem, cat. no. 345810). Cells were grown as monolayers under 95%:5% air:CO2 at 37° C. […]
Compounds of the invention were tested in a final assay concentration range from 1.66×10^−5M to 1.58×10^−11M. […] This final concentration of hOrexin A was equivalent to the calculated EC80 for hOrexinA agonist potency in this test system. […]
The loaded cells were then incubated for 10 min at 37° C. with test compound. The plates were then placed into a FLIPR™ (Molecular Devices, UK) to monitor cell fluorescence (λex=488 nm, λEM=540 nm) (Sullivan E, Tucker E M, Dale I L. Measurement of [Ca^2]i using the fluometric imaging plate reader (FLIPR). In: Lambert DG (ed.), Calcium Signaling Protocols. New Jersey: Humana Press, 1999, 125-136). A baseline fluorescence reading was taken over a 5 to 10 second period, and then 10 μL of EC80 hOrexinA solution was added. […]

In the case of `CCOc1ccc(C)nc1C(=O)N1C[C@@H]2C[C@@H]2C[C@H]1COc1ncc(C(F)(F)F)cn1` [Example E4, (1R,4S,6R)-3-{[3-(ethyloxy)-6-methyl-2-pyridinyl]carbonyl}-4-({[5-(trifluoromethyl)-2-pyrimidinyl]oxy}methyl)-3-azabicyclo[4.1.0]heptane], the Ki is reported as greater than 15.8 µM.
